From US11219213B2, “Fungicidal composition” (ADAMA HUIFENG (JIANGSU) LTD., priority 2016, dated 2022) come the findings set out here.

The test system of the test is wheat leaf rust. Put plainly: Toxicity test of benzisothiazolinone combined with flutriafol (bioassay). It is filed as in vivo. The conditions noted are these: for ATI (actual toxicity index): (EC50 of standard/EC50 of test agent)*100, flutriafol as standard; for EC50: median inhibition concentration from control effect, least square method.

The structures appear in SMILES notation. Read-outs that look alike come from different tables or passages of the source.

On to `O=c1[nH]sc2ccccc12` [Benzisothiazolinone, benzisothiazolinone], for which the “ATI (actual toxicity index)” value is 167.39 and the EC50 (commonly the midpoint of the concentration-response curve) was determined as 40.23 µg/mL.
Regarding `OC(Cn1cncn1)(c1ccc(F)cc1)c1ccccc1F` (stereo not shown) [Flutriafol, flutriafol], the “ATI (actual toxicity index)” value amounted to 100.00. Moreover, the 50% effective concentration (EC50) (Puccinia triticina, read-out: EC50) came out at 67.3 µg/mL.
